# According to publication PMC12067145 (ACS Medicinal Chemistry Letters, 2025):
# What was measured:
# [1] = Rat IV:PBL PK cassette study / in vivo rat clearance; conditions: male, Sprague-Dawley, 0.2 mg/kg
# Kv4.3 = Kv4.3 (Homo sapiens, UniProt Q9UK17); assay: Cardiac ion channel MPC selectivity panel; assay type: cell-based
# [2] = Liver microsome intrinsic clearance (human); assay type: in vitro ADME; conditions: pH 7.4; human liver microsomes; read-out: LMS CLINT human
# Description: After a 5 min preincubation, the reaction was initiated by the addition of NADPH (1 mM). At selected time intervals between 0 ~ 60 min (e.g. 0, 3, 7, 15, 25, 45 and/or 60 min), aliquots were taken and subsequently placed into a 96-well plate containing cold acetonitrile with an internal standard (50 ng/mL carbamazepine). Plates were then centrifuged at 3000 rcf (4 °C) for 10 min, and the supernatant was transferred to a separate 96-well plate and diluted 1:1 with water for LC/MS/MS analysis. The in vitro half-life (T 1/2, min, Eq. 1), intrinsic clearance (CLint, mL/min/kg, Eq. 2), and subsequent predicted hepatic clearance (CLhep, mL/min/kg, Eq. 3) were determined employing the following equations: […]
# where k represents the slope from linear regression analysis of the natural log percent remaining of a test compound as a function of incubation time […]
# (2) CLint = in vitroT1/2 x mg microsomes x gram liver x kg body wt ascale-up factors: of 20 (human) or 45 (rat) or 87.5 (mouse) […]
# where Qh (hepatic blood flow, mL/min/kg) is 21 (human) or 70 (rat) or 90 (mouse).
# LC/MS/MS Bioanalysis of Samples from Plasma Protein Binding and Intrinsic Clearance […]
# Samples were analyzed on a Thermo Electron TSQ Quantum Ultra triple quad mass spectrometer (San Jose, CA) via electrospray ionization (ESI) with two Themo Electron Accella pumps (San Jose, CA), and a Leap Technologies CTC PAL autosampler (Carrboro, NC). Analytes were separated by gradient elution on a dual column system with two Thermo Hypersil Gold (2.1 x 30 mm, 1.9 µm) columns (San Jose, CA) thermostated at 40 °C. HPLC mobile phase A was 0.1% formic acid in water and mobile phase B was 0.1% formic acid in acetonitrile. The gradient started […]
# for 0.2 min; returned to 10% B in 0.1 min. The total run time was 1.3 min and the HPLC flow rate was 0.8 mL/min. While pump 1 ran the gradient method, pump 2 equilibrated the alternate column isocratically at 10% B. Compound optimization, data collection, and processing were performed using Thermo Electron's QuickQuan software (v2.3) and Xcalibur (v2.0.7 SP1). […]
# Cav1.2 = Cav1.2 (Homo sapiens, UniProt Q13936); assay: Cardiac ion channel MPC selectivity panel; assay type: cell-based
# male CD-1 mice = assay: MK-801 challenged novel object recognition (NOR) task; assay type: in vivo, mouse; conditions: IP, 3.5 h prior to MK-801 (0.2 mg/kg IP)
# Purinergic P2X = assay: Eurofins lead profiling screen (radioligand binding); design: species or system Rat
# Adenosine A2A = Adenosine A2A (Homo sapiens, UniProt P29274); assay: as above
# Phorbol Ester = assay: as above; design: species or system Mouse
# [3] = molecular target: Leukotriene, Cysteinyl CysLT1 (Homo sapiens, UniProt Q9Y271); assay: as above
# [4] = molecular target: Nicotinic Acetylcholine α1, Bungarotoxin (Homo sapiens, UniProt P02708+P07510+Q07001); assay: biochemical; assay type: binding; conditions: read-out: % Inhibition at 10 µM
# Neuropeptide Y Y1 = Neuropeptide Y Y1 (Homo sapiens, UniProt P25929); assay: Eurofins lead profiling screen (radioligand binding)
# Adrenergic β2 = Adrenergic β2 (Homo sapiens, UniProt P07550); assay: as above
# Muscarinic M3 = Muscarinic M3 (Homo sapiens, UniProt P20309); assay: as above
# Imidazoline I2, Central = assay: as above; design: species or system Rat
# Bradykinin B2 = Bradykinin B2 (Homo sapiens, UniProt P30411); assay: as above
# Interleukin IL-1 R1 = Interleukin IL-1 R1 (Homo sapiens, UniProt P14778); assay: as above
# [5] = molecular target: Transporter, Serotonin (SERT) (Homo sapiens, UniProt P31645); assay: as above
# Glutamate, Kainate = assay: as above; design: species or system Rat
# hERG potassium channel = hERG potassium channel (Homo sapiens, UniProt Q12809); assay: as above
# Endothelin ETA = Endothelin ETA (Homo sapiens, UniProt P25101); assay: as above
# GABAB1A = GABAB1A (Homo sapiens, UniProt Q9UBS5); assay: as above
# Neuropeptide Y Y2 = Neuropeptide Y Y2 (Homo sapiens, UniProt P49146); assay: as above
# [6] = molecular target: Calcium Channel L-Type, Dihydropyridine (Rattus norvegicus, UniProt P22002); assay: as above
# Chain of Bradykinin B2 (P30411 whole entry): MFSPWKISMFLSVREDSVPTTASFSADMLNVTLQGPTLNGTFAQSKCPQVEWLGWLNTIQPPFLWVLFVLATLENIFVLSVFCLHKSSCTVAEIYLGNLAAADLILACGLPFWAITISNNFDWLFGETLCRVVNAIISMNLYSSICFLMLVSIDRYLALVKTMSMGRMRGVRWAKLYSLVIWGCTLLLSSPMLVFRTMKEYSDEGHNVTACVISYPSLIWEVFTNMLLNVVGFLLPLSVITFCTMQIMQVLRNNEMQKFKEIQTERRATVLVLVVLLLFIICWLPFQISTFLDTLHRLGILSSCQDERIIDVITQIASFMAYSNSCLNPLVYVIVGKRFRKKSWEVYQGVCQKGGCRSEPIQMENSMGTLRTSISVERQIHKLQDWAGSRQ
# Chain of GABAB1A (Q9UBS5 15-961 limits assumed): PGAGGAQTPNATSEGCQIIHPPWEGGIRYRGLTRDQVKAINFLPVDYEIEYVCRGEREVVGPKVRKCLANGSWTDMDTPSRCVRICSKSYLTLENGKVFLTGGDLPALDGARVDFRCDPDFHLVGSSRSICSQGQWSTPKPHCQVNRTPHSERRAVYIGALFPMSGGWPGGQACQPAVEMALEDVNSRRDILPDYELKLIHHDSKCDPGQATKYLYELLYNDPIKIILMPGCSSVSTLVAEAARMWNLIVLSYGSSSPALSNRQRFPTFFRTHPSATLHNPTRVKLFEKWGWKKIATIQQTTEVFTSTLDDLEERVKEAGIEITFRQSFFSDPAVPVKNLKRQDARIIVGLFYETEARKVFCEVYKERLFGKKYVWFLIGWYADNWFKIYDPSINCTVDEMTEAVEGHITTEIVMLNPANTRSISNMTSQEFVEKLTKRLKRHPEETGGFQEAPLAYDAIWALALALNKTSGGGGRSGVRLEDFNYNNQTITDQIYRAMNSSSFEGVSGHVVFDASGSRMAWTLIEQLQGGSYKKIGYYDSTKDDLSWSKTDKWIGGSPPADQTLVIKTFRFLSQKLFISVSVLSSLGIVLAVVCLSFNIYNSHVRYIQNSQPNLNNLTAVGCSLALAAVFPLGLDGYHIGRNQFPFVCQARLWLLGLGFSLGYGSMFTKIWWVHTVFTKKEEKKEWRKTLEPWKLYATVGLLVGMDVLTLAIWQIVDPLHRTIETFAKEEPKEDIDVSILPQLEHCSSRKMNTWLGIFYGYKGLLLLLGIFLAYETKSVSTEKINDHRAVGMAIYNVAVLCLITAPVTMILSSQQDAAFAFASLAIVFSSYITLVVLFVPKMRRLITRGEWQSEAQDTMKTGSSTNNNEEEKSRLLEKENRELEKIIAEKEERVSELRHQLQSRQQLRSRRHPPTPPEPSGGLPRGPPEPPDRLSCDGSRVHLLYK
# Chain of Adenosine A2A (P29274 whole entry): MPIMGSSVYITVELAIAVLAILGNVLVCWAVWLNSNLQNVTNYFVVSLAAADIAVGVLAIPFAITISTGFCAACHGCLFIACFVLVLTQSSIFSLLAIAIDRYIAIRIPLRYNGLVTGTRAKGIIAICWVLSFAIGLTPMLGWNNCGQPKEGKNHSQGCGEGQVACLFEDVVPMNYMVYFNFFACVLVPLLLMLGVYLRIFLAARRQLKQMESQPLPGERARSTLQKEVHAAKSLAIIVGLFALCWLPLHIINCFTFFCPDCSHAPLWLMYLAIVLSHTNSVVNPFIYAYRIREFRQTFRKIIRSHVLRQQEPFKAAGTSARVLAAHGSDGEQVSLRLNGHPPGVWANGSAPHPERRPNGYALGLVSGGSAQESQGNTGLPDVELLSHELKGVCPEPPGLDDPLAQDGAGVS
# Chain of Adrenergic β2 (P07550 whole entry): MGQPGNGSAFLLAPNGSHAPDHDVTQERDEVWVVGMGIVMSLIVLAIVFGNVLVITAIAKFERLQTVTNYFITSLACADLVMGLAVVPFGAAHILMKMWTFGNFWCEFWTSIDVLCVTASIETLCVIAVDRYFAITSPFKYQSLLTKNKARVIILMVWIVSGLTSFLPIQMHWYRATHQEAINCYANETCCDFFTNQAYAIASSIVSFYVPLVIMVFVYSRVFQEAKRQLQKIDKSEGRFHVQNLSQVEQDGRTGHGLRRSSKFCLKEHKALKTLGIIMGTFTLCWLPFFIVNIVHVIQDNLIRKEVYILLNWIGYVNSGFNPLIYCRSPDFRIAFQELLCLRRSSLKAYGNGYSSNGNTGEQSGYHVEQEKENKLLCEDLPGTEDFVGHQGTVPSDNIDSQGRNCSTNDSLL
# Chain of Muscarinic M3 (P20309 whole entry): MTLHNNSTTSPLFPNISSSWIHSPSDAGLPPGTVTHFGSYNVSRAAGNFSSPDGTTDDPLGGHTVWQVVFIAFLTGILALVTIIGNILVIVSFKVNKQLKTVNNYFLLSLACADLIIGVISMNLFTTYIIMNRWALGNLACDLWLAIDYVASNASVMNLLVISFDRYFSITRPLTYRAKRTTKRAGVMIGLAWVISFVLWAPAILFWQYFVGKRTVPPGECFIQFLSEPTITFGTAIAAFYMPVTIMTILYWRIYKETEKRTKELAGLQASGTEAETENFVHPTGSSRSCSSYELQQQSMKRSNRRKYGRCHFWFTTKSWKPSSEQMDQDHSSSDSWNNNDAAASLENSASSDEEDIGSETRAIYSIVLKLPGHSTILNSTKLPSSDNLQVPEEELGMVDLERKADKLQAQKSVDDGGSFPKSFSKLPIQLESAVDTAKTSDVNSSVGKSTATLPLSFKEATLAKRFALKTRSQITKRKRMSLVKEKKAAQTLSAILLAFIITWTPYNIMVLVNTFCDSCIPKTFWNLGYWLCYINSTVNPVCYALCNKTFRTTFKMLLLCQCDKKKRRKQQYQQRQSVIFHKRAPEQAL
# Chain of Neuropeptide Y Y2 (P49146 whole entry): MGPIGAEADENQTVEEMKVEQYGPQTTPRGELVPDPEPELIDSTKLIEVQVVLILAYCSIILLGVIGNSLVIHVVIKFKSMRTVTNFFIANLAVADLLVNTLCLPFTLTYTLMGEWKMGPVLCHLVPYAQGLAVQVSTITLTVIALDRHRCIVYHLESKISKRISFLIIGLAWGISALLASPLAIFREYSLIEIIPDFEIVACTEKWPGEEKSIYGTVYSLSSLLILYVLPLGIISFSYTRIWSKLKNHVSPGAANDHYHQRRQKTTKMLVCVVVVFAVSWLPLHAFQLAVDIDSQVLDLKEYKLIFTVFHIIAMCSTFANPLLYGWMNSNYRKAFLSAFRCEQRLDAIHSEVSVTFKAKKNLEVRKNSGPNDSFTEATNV
# Chain of Kv4.3 (Q9UK17 whole entry): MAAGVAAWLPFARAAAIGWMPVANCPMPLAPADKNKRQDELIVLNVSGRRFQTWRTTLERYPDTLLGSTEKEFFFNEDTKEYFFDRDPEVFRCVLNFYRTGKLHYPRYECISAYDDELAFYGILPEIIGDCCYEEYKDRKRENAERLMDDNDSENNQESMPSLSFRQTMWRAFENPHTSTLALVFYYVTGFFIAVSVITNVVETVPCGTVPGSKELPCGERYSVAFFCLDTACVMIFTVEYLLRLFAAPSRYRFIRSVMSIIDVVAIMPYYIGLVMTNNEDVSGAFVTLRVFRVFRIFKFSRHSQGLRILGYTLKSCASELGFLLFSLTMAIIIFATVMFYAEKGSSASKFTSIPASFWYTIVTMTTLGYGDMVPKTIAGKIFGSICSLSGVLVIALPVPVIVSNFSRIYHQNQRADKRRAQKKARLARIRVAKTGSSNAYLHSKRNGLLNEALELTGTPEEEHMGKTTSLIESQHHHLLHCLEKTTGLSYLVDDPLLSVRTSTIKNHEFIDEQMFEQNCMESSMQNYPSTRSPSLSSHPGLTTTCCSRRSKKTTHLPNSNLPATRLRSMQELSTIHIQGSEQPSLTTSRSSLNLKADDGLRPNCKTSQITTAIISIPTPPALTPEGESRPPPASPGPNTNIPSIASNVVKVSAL
# Chain of hERG potassium channel (Q12809 whole entry): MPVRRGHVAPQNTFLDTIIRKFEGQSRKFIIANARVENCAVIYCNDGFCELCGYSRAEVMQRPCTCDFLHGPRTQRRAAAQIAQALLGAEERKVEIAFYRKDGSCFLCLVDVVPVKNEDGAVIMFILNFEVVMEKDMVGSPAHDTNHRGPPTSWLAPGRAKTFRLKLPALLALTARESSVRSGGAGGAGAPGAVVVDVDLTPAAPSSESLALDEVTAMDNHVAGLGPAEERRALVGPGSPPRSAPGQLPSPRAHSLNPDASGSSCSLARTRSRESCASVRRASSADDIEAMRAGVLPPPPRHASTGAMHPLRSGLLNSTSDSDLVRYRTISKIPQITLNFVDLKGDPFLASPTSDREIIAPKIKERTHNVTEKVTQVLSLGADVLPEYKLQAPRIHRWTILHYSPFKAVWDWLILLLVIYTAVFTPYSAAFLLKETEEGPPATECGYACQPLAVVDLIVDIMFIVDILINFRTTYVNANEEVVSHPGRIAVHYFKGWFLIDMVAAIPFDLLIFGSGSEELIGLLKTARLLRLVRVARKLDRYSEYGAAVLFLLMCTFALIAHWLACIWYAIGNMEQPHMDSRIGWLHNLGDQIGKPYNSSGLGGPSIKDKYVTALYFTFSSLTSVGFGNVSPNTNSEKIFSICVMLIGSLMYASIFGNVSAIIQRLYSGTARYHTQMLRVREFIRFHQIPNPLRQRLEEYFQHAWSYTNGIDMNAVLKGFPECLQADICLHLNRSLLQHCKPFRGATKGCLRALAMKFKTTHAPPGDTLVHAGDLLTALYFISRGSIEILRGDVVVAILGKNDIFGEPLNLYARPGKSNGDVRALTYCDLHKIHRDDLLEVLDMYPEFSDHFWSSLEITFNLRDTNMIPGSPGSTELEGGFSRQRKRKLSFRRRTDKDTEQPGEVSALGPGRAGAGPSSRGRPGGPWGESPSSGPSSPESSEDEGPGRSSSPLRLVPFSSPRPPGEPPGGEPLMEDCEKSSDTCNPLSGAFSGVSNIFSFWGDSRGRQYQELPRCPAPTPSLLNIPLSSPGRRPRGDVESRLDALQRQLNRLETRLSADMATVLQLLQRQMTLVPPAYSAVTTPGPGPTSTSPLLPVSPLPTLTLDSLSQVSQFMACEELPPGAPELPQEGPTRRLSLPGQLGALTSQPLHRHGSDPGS
smiles,measurement,setting,value
Cc1cc(C#Cc2ccc(F)cc2)cnc1NC(=O)c1cc(NC(=O)OC(C)(C)C)ccc1Cl [Compound 14c],clearance at 24 h,"[1]; iv, in vivo rat plasma clearance, read-out: rat CLp",21.2 mL/min/kg
same,half-life at 24 h,"[1]; plasma, rat IV:PBL PK cassette",6.78 h
same,Vd at 24 h,"[1]; plasma, rat IV:PBL PK cassette, read-out: volume of distribution",6.7 L/kg
same,"% at 10 μM, Kv4.3",Kv4.3,< 50%
same,CLint scaled at 1 µM,[2],7.5 mL/min/kg
same,"% at 10 μM, Cav1.2",Cav1.2,< 50%
same,minimum effective dose (MED),male CD-1 mice,10 mg/kg
O=C(NCc1ccc(OC(F)(F)F)cc1F)c1ccc2ncnn2c1 [ONO-2920632],% Inhibition at 10 µM,Purinergic P2X,1%
same,inhibition at 10 µM,Adenosine A2A,3%
same,% Inhibition at 10 µM,Phorbol Ester,-7%
same,inhibition at 10 µM,[3],-7%
same,inhibition at 10 µM,[4],-4%
same,inhibition at 10 µM,Neuropeptide Y Y1,15%
same,inhibition at 10 µM,Adrenergic β2,4%
same,inhibition at 10 µM,Muscarinic M3,7%
same,% Inhibition at 10 µM,"Imidazoline I2, Central",10%
same,inhibition at 10 µM,Bradykinin B2,-10%
same,inhibition at 10 µM,Interleukin IL-1 R1,-1%
same,inhibition at 10 µM,[5],-3%
same,% Inhibition at 10 µM,"Glutamate, Kainate",3%
same,inhibition at 10 µM,hERG potassium channel,39%
same,inhibition at 10 µM,Endothelin ETA,-11%
same,inhibition at 10 µM,GABAB1A,0%
same,inhibition at 10 µM,Neuropeptide Y Y2,6%
same,inhibition at 10 µM,[6],76%
